The values below come from US6221863A, “3,4-dihydro-2H-benzo[1,4]oxazine derivatives” (American Home Products Corp., priority 1999, dated 2001).

The pKi is the Ki on a negative log10 scale, so that one unit is a factor of ten. What is called Emax is the greatest response seen or fitted, relative to the assay's reference.

In one test the target is T1, serotonin transporter (Rattus norvegicus, UniProt P31652).
T1 construct: frontal cortical membranes prepared from male Sprague-Dawley rats; from tissue; host or cells: frontal cortical membranes of male Sprague-Dawley rats
T1 sequence (P31652 whole entry): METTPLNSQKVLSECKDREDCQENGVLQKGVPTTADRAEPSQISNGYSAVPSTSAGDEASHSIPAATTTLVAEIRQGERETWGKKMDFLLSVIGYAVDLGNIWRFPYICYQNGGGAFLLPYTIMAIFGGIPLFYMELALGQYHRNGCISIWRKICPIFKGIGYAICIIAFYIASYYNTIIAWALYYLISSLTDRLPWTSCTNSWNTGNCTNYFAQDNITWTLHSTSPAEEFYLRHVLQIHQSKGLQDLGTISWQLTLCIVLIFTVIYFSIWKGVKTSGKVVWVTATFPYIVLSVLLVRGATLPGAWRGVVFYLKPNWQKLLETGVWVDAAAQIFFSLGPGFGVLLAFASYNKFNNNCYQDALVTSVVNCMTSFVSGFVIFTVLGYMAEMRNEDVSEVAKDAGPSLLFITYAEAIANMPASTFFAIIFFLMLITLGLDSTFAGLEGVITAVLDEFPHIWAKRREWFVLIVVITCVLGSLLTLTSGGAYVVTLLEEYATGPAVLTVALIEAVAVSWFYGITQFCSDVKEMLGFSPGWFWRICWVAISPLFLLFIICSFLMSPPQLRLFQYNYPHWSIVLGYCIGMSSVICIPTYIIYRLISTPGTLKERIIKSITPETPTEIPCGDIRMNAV
As to the kind of experiment: serotonin transporter (ST) binding, 3H-paroxetine displacement in rat frontal cortical membranes. Also noted: species or system rat (male Sprague-Dawley). As for the experimental part:
A protocol similar to that used by Cheetham et al., Neuropharmacol. , 32:737 (1993) was used to determine the affinity of compounds for the serotonin transporter. Briefly, frontal cortical membranes prepared from male Sprague-Dawley rats were incubated with ^3 H-paroxetine (0.1 nM) for 60 min at 25° C. All tubes also contained either vehicle, test compound (one to eight concentrations), or a saturating concentration of fluoxetine (10 μM) to define […]. All reactions were terminated by the addition of ice cold Tris buffer followed by rapid filtration using a Tom Tech filtration device to separate bound from free ^3 H-paroxetine. Bound radioactivity was quantitated using a Wallac 1205 Beta Plate® counter. Nonlinear regression analysis was used to determine IC50 values which were converted to Ki values using the method of Cheng and Prusoff, Biochem. Pharmacol., 22:3099 (1973); Ki=IC50/((Radioligand conc.)/(1+KD)).

Test [1] addresses T2, human 5-HT1A receptor (Homo sapiens, UniProt P08908).
T2 construct: expressed in transfected cells
T2 sequence (P08908 1-422): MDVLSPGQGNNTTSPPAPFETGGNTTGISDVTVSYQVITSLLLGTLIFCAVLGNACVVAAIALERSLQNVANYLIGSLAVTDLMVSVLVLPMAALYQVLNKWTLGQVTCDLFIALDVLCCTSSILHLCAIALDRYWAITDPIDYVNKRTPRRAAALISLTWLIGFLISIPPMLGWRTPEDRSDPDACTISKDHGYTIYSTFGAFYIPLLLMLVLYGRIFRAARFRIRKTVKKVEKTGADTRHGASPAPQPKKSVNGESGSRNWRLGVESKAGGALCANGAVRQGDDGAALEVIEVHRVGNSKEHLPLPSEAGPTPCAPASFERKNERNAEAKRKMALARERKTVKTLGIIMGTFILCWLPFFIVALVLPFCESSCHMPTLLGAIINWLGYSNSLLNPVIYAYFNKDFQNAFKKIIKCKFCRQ
Put plainly: [35S]-GTPγS binding in 5-HT1A cloned receptor membrane fragments. In kind it is biochemical. Conditions: [35S]GTPγS 1 nM, 30 min, 30° C.; excess 8-OH-DPAT defines maximum agonist response. The source says:
(§1) The PCR cloning of the human ^5 -HT1A receptor subtype from a human genomic library has been described previously by Chanda et al., Mol. Pharmacol., 43:516 (1993). A stable Chinese hamster ovary cell line expressing the human S-HT1A receptor subtype (5-HT1A.CHO cells) was employed throughout this study. Cells were maintained in DMEM supplemented with 10% fetal calf serum, non-essential amino acids and penicillin/ streptomycin.
The [^35 S]-GTPγS binding assay was similar to that used by Lazareno and Birdsall, Br. J. Pharmacol. 109:1120 (1993). Briefly, 5-HT1A cloned receptor membrane fragments (as used for 5-H1A receptor binding assays) were stored at -70° C. until needed. When needed, membranes were rapidly thawed, centrifuged at 40,000×g for 10 minutes and resuspended at 4° C. for 10 minutes in assay buffer (25 mM HEPES, 3 mM MgCl2, 100 mnM NaCl, 1 mM EDTA, 10 uM GDP, […] DTT, pH 8.0). These membranes were then incubated for 30 min at 30° C. with [^35 S]GTPgS (1 nM) in the presence of vehicle, test compound (one to eight concentrations), or excess 8-OH-DPAT to define maximum agonist response. All reactions are terminated by the addition of ice cold Tris buffer followed by rapid filtration using a Tom Tech® filtration device to separate bound from free [^35 S]GTPgS. Agonists produce an increase in the amount of [^35 S]GTPgS bound whereas antagonists produce no increase in binding. Bound radioactivity was counted and analyzed as above.
On the technique in general: GTPγS resists hydrolysis and so accumulates on activated G proteins.

For test [2], the target named is T2, human 5-HT1A receptor. As to the kind of experiment: 5-HT1A receptor binding, [3H]8-OH-DPAT displacement in membranes of CHO cells expressing the human receptor. The conditions noted are these: 5-HT1A.CHO membranes; for pKi: [3H]8-OH-DPAT 1.5 nM, 30 min, room temperature; for inhibition at 0.1 µM: at .1 μM, [3H]8-OH-DPAT, read-out: 5-HT1A (% Inh. @ .1 μM). As for the experimental part: as §1
Cells were grown to 95-100% confluency as a monolayer before membranes were harvested for binding studies. Cells were gently scraped from the culture plates, transferred to centrifuge tubes, and washed twice by centrifugation (2000 rpm for 10 min., 4° C.) in buffer (50 mM Tris; pH 7.5). The resulting pellets were aliquoted and placed at -80.C. On the day of assay, the cells were thawed on ice, and resuspended in buffer. Studies were conducted using [^3 H]8-OH-DPAT as the radioligand. The binding assay was performed in 96 well mnicrotiter plates in a final total volume of 250 μL of buffer. Comparison experiments were performed by using 7 concentrations of unlabelled drug and a final ligand concentration of 1.5 nM . Non-specific binding was determined in the presence of 10 μM 5HT. Saturation analysis was conducted by using [^3 H]8-OH-DPAT at concentrations ranging from 0.3-30 nM. Following a 30 minute incubation at room temperature, the reaction was terminated by the addition of ice cold buffer and rapid filtration using a M-96 Brandel Cell Harvester Gaithersburg, Md.) through a GF/B filter presoaked for 30 minutes in 0.5% polyethyleneimine.

Where [3] appears, read: 3H-paroxetine 0.1 nM, 60 min, 25° C., rat frontal cortical membranes, IC50 converted to Ki (Cheng-Prusoff), read-out: ST (Ki).

pKi: −log10 of the molar value. Like-named read-outs stand apart in the source and are kept apart here.

For `COc1cccc2c1OC(CN1CC=C(c3c[nH]c4ccc(F)cc34)CC1)CN2` (centres unmarked) [Example 1, 2-[4-(5-Fluoro-1H-indol-3-yl)-3,6-dihydro-2H-pyridin-1-ylmethyl]-8-methoxy-3,4-dihydro-2H-benzo[1,4]oxazine], the pKi was 8.43 on serotonin transporter and 6.81 on human 5-HT1A receptor [2]. The Emax at human 5-HT1A receptor [1] amounted to 10%.

In the case of `COc1cccc2c1OC(CN1CC=C(c3c[nH]c4ccc(F)cc34)CC1)CN2C` (centres unmarked) [Example 2, 2-[4-(5-Fluoro-1H-indol-3-yl)-3,6-dihydro-2H-pyridin-1-ylmethyl]-8-methoxy-4-methyl-3,4-dihydro-2H-benzo[1,4]oxazine], the results for the pKi on serotonin transporter and at human 5-HT1A receptor [2] were 8.07 and 6.85, respectively. Also, at human 5-HT1A receptor [1], the Emax was 97%.

In the case of `CCN1CC(CN2CC=C(c3c[nH]c4ccc(F)cc34)CC2)Oc2c(OC)cccc21` (centres unmarked) [Example 3, 2-[4-(5-Fluoro-1H-indol-3-yl)-3,6-dibydro-2H-pyridin-1-ylmetbyl]-8-methoxy-4-ethyl-3,4-dihydro-2H-benzo[1,4]oxazine], the values for the pKi at serotonin transporter and on human 5-HT1A receptor [2] were 7.92 and 6.86, respectively. The same compound showed an Emax on human 5-HT1A receptor [1] of 62%.

For the compound `CCCN1CC(CN2CC=C(c3c[nH]c4ccc(F)cc34)CC2)Oc2c(OC)cccc21` (centres unmarked) [Example 4, 2-[4-(5-Fluoro-1H-indol-3-yl)-3,6-dihydro-2H-pyridin-1-ylmethyl]-8-methoxy-4-propyl-3,4-dihydro-2H-benzo[1,4]oxazine], the pKi is 7.70 at serotonin transporter and 6.44 on human 5-HT1A receptor [2]. The compound also displayed an Emax on human 5-HT1A receptor [1] of 100%.

As to `C1=C(c2c[nH]c3ccccc23)CCN(CC2CNc3ccccc3O2)C1` (centres unmarked) [Example 5, 2-[4-(1H-Indol-3-yl)-3,6-dihydro-2H-pyridin-1-ylmethyl]-3,4-dihydro-2H-benzo[1,4]oxazine], the pKi was 9.13 on serotonin transporter (setting [3]) and 6.09 at human 5-HT1A receptor [2]. For the same compound, the Emax on human 5-HT1A receptor [1] amounted to 57%.

Compound `C1=C(c2c[nH]c3ncccc23)CCN(CC2CN(c3ccccc3)c3ccccc3O2)C1` (centres unmarked) [Example 6, 4-Phenyl-2-[4-(1H-pyrrolo[2,3,b]pyridin-3yl)-3,6-dihydro-2H-pyridin-1-ylmethyl]-3,4-dihydro-2H-benzo[1,4]oxazine] showed a negative-log Ki (pKi) on serotonin transporter of 6.97. The Emax on human 5-HT1A receptor [1] was 0%. Moreover, on human 5-HT1A receptor [2], the inhibition at 0.1 µM was found to be 20%.

With `COc1cccc2c1OC(CN1CC=C(c3c[nH]c4ccc(F)cc34)CC1)CN2c1ccc(C(F)(F)F)cc1` (centres unmarked) [Example 7, 2-[4-(5-Fluoro-1H-Indol-3-yl)-3,6-dihydro-2H-pyridin-1-ylmethyl]-8-methoxy-4-(4-trifluoromethyl-phenyl)-3,4-dihydro-2H-benzo[1,4]oxazine], the pKi at serotonin transporter (setting [3]) was 6.30. Further, the inhibition at 0.1 µM on human 5-HT1A receptor [2] is 0%.
